Data from PMC9151520 (Archives of Toxicology, 2022).
Values joined by “and” are separate entries in the source; they are usually repeats but may differ in a detail not shown here. Identical values can stand only once. Like-named read-outs stand apart in the source and are kept apart here.

Columns and labels:
[1] = test system: p53 signaling (p53RE-bla HCT-116 cells)
[2] = test system: p53 signaling (p53RE-bla HCT-116 cells); remark: listed apart in the source
p53RE-bla HCT-116 cells [3] = assay: cells; settings: Homo sapiens
p53RE-bla HCT-116 cells [4] = test system: p53RE-bla HCT-116 cells
[5] = test system: p53 signaling (p53RE-bla HCT-116 cells); assay: cells; assay type: cell-based
[6] = test system: p53 signaling (p53RE-bla HCT-116 cells); assay: cells; settings: Homo sapiens
[7] = HCT-116, read-out: EC50, viability, primary screening
[8] = read-out: EC50, viability, primary screening
[9] = Homo sapiens, HCT-116, read-out: EC50, p53 activation, primary screening
[10] = Homo sapiens, HCT-116, read-out: Efficacy, p53 activation, primary screening
[11] = HCT-116, read-out: Viability EC50, cherry pick confirmation
[12] = HCT-116, read-out: EC50, viability, cherry pick confirmation
[13] = Homo sapiens, HCT-116, read-out: EC50, p53 activation, cherry pick confirmation
[14] = Homo sapiens, HCT-116, read-out: Efficacy, p53 activation, cherry pick confirmation

CC(C)=CCC1=C(O)C(=O)c2ccccc2C1=O [Lapachol]
p53 activation EC50 [1]: inactive | p53 activation EC50 [2]: inactive | EC50 (p53RE-bla HCT-116 cells [3]; HCT-116, read-out: Viability EC50): 1.38 µM | Viability EC50 (p53RE-bla HCT-116 cells [4]): inactive | p53 activation efficacy [5]: 104.839 | EC50 ([5]; read-out: p53 activation EC50): 3.38 µM

CC(C)(c1cc(Br)c(O)c(Br)c1)c1cc(Br)c(O)c(Br)c1 [3,3',5,5'-Tetrabromobisphenol A]
EC50, p53 activation, cherry pick confirmation [1]: inactive | EC50, p53 activation, primary screening [1]: inactive | Efficacy, p53 activation, cherry pick confirmation [1]: inactive | Efficacy, p53 activation, primary screening [1]: inactive | EC50, p53 activation, cherry pick confirmation [2]: inactive | EC50, p53 activation, primary screening [2]: inactive | Efficacy, p53 activation, cherry pick confirmation [2]: inactive | Efficacy, p53 activation, primary screening [2]: inactive | EC50 (p53RE-bla HCT-116 cells [3]; [7]): 34.3 µM | EC50 (p53RE-bla HCT-116 cells [4]; [8]): 34.9 µM and 45.8 µM | EC50, p53 activation, cherry pick confirmation [5]: inactive | Efficacy, p53 activation, cherry pick confirmation [5]: inactive | EC50 [5, 9]: 30.1 µM | Emax [5, 10]: 91.5%

CCOc1ccc2c(c1)C(C)=CC(C)(C)N2 [Ethoxyquin]
p53 activation EC50, cherry pick confirmation [1]: inactive | p53 activation EC50, primary screening [1]: inactive | p53 activation efficacy, cherry pick confirmation [1]: inactive | p53 activation efficacy, primary screening [1]: inactive | EC50 ([6]; HCT-116, read-out: p53 activation EC50, primary screening): 39.1 µM | Emax ([6]; HCT-116, read-out: p53 activation efficacy, primary screening): 50.4% | p53 activation EC50, cherry pick confirmation [2]: inactive | p53 activation efficacy, cherry pick confirmation [2]: inactive | EC50 (p53RE-bla HCT-116 cells [3]; [11]): 51.1 µM | EC50 (p53RE-bla HCT-116 cells [3]; HCT-116, read-out: Viability EC50, primary screening): 54.2 µM | Viability EC50, cherry pick confirmation (p53RE-bla HCT-116 cells [4]): inactive | Viability EC50, primary screening (p53RE-bla HCT-116 cells [4]): inactive | EC50 (p53RE-bla HCT-116 cells [4]; read-out: Viability EC50, cherry pick confirmation): 48.2 µM | p53 activation EC50, cherry pick confirmation [5]: inactive | p53 activation EC50, primary screening [5]: inactive | p53 activation efficacy, cherry pick confirmation [5]: inactive | p53 activation efficacy, primary screening [5]: inactive

Oc1c(I)cc(I)cc1I [2,4,6-Triiodophenol]
EC50, p53 activation, cherry pick confirmation [1]: inactive | EC50, p53 activation, primary screening [1]: inactive | Efficacy, p53 activation, cherry pick confirmation [1]: inactive | Efficacy, p53 activation, primary screening [1]: inactive | EC50, p53 activation, cherry pick confirmation [2]: inactive | EC50, p53 activation, primary screening [2]: inactive | Efficacy, p53 activation, cherry pick confirmation [2]: inactive | Efficacy, p53 activation, primary screening [2]: inactive | EC50 (p53RE-bla HCT-116 cells [3]; [7]): 19 µM | EC50, viability, cherry pick confirmation (p53RE-bla HCT-116 cells [4]): inactive | EC50, viability, primary screening (p53RE-bla HCT-116 cells [4]): inactive | EC50, p53 activation, cherry pick confirmation [5]: inactive | Efficacy, p53 activation, cherry pick confirmation [5]: inactive | EC50 [5, 9]: 20.7 µM | Emax [5, 10]: 27.1%

CC1=CC(=O)c2ccccc2C1=O [Menadione]
EC50, p53 activation, cherry pick confirmation [1]: inactive | EC50, p53 activation, primary screening [1]: inactive | Efficacy, p53 activation, cherry pick confirmation [1]: inactive | Efficacy, p53 activation, primary screening [1]: inactive | EC50, p53 activation, cherry pick confirmation [2]: inactive | EC50, p53 activation, primary screening [2]: inactive | Efficacy, p53 activation, cherry pick confirmation [2]: inactive | Efficacy, p53 activation, primary screening [2]: inactive | EC50 (p53RE-bla HCT-116 cells [3]; [12]): 36.3 µM | EC50 (p53RE-bla HCT-116 cells [3]; [7]): 51.3 µM | EC50 (p53RE-bla HCT-116 cells [4]; read-out: EC50, viability, cherry pick confirmation): 42.4 µM | EC50 (p53RE-bla HCT-116 cells [4]; [8]): 42.4 µM and 46.3 µM | EC50 [5, 13]: 16.2 µM | EC50 [5, 9]: 40.3 µM | Emax [5, 14]: 33.9% | Emax [5, 10]: 31.2%

Oc1c(Cl)cc(Cl)c(Cl)c1Cc1c(O)c(Cl)cc(Cl)c1Cl [Hexachlorophene]
p53 activation EC50, cherry pick confirmation [1]: inactive | p53 activation EC50, primary screening [1]: inactive | p53 activation efficacy, cherry pick confirmation [1]: inactive | p53 activation efficacy, primary screening [1]: inactive | p53 activation EC50, cherry pick confirmation [2]: inactive | p53 activation EC50, primary screening [2]: inactive | p53 activation efficacy, cherry pick confirmation [2]: inactive | p53 activation efficacy, primary screening [2]: inactive | EC50 (p53RE-bla HCT-116 cells [3]; [11]): 2.23 µM | Viability EC50, cherry pick confirmation (p53RE-bla HCT-116 cells [4]): inactive | EC50 ([5]; Homo sapiens, HCT-116, read-out: p53 activation EC50, cherry pick confirmation): 18 µM | EC50 ([5]; Homo sapiens, HCT-116, read-out: p53 activation EC50, primary screening): 19.9 µM | Emax ([5]; Homo sapiens, HCT-116, read-out: p53 activation efficacy, cherry pick confirmation): 99.6% | Emax ([5]; Homo sapiens, HCT-116, read-out: p53 activation efficacy, primary screening): 45.4%

Cc1nc(N)nc(N)c1-c1ccc(Cl)c(Cl)c1 [Methodichlorophen]
EC50, p53 activation, cherry pick confirmation [1]: inactive | EC50, p53 activation, primary screening [1]: inactive | Efficacy, p53 activation, cherry pick confirmation [1]: inactive | Efficacy, p53 activation, primary screening [1]: inactive | EC50, p53 activation, cherry pick confirmation [2]: inactive | EC50, p53 activation, primary screening [2]: inactive | Efficacy, p53 activation, cherry pick confirmation [2]: inactive | Efficacy, p53 activation, primary screening [2]: inactive | EC50 (p53RE-bla HCT-116 cells [3]; [12]): 1.58 µM | EC50, viability, cherry pick confirmation (p53RE-bla HCT-116 cells [4]): inactive | EC50, viability, primary screening (p53RE-bla HCT-116 cells [4]): inactive | Efficacy, viability, primary screening (p53RE-bla HCT-116 cells [4]): inactive | EC50 [5, 13]: 9.01 µM | EC50 [5, 9]: 5.92 µM | Emax [5, 14]: 31.4% | Emax [5, 10]: 42.9%
